{"source": "patent US8404677B2", "about": "“Kinase inhibitors” (Genosco, priority 2009, dated 2013)", "key": {"[1]": {"system": "SN4741 cells overexpressing LRRK2 G2019S", "assay": "Neuroprotection from LRRK2-mediated dopaminergic cell death (H2O2, crystal violet)", "format": "cell-based, murine", "conditions": "for Percent Cell Death: 100 μM hydrogen peroxide", "procedure": "(§1) SN4741, a murine dopaminergic cell line were cultured in DMEM containing 10 FBS at 37° C., respectively. SN4741 cells (1.5×10^4/well) were seeded in 48 well plates 1 day before transient transfection with 1 μg of the pcDNA3.1 plasmids of either vector, LRRK wildtype cDNA, LRRK G2019S cDNA, by standard CaCl2 precipitation. Two days after transfection, cells were treated with 100 μM hydrogen peroxide for 1 day and cell viability was measured by crystal violet assay. For compound treatment, the test compounds were added at 0.05 μM, 0.5 μM and 5 μM and the cells were incubated for 1 hour prior to the addition of hydrogen peroxide.\n(§2) SN4741 cells were transfected with plasmids containing the LRRK2 wild-type or G2019S and incubated them for 2 days followed by addition of 100 μM of hydrogen peroxide for 24 h to sensitize them to oxidative stress. Cell survival was assessed using the crystal violet."}, "[2]": {"system": "SN4741 cells overexpressing LRRK2 wild-type", "assay": "Neuroprotection from LRRK2-mediated dopaminergic cell death (H2O2, crystal violet)", "format": "cell-based, murine", "conditions": "for Percent Cell Death: LRRK2 WT, 100 μM hydrogen peroxide", "procedure": "as §1, §2"}, "[3]": {"system": "SN4741 cells transfected with vector", "assay": "Neuroprotection from LRRK2-mediated dopaminergic cell death (H2O2, crystal violet)", "format": "cell-based, murine", "conditions": "100 μM hydrogen peroxide", "procedure": "as §1, §2"}, "[4]": {"system": "MOLT-4", "assay": "cells", "format": "cell-based", "conditions": "MOLT-4 (Leukemia)"}, "[5]": {"system": "A498", "assay": "cells", "format": "cell-based", "conditions": "A498 (Renal Cancer)"}, "[6]": {"system": "MDA-MB-468", "assay": "cells", "format": "cell-based", "conditions": "MDA-MB-468 (Breast Cancer)"}, "[7]": {"system": "UACC-257", "assay": "cells", "format": "cell-based", "conditions": "UACC-257 (Melanoma)"}, "[8]": {"system": "NCI-H23", "assay": "cells", "format": "cell-based", "conditions": "NCI-H23 (NSCLC)"}, "[9]": {"system": "TNF-α release in THP-1 cells, LPS stimulation", "assay": "SYK independent TNF-α release assay (LPS stimulation)", "format": "cell-based, human", "procedure": "For SYK independent TNF-α release assay (i.e., via lipopolysaccharide (LPS)-stimulation), THP-1 cells derived from human monocytic cells were obtained from the American Type Culture Collection (ATCC, Manassas, Va.). This cell line was maintained with an RPMI medium (GIBCO™) containing 10 fetal bovine serum (FBS, GIBCO™) and 0.05 mM 2-mercaptoethanol. The THP-1 cells were seeded at 1×10^5 cells/100 μL/well into 96-well culture plates, and treated with lipopolysaccharide (1 μg/ml), and serially diluted compound was then added. After an 18-hour incubation period at 37° C., supernatants were collected for the determination of the TNF-α level by ELISA, and the remaining cells were subjected to an MTT assay to determine the cytotoxic effects of compound."}, "[10]": {"system": "786-0", "assay": "cells", "format": "cell-based", "conditions": "786-0 (Renal Cancer)"}, "[11]": {"conditions": "Homo sapiens, read-out: LC50 (the source's name)"}}}
{"smiles": "O=c1[nH]ccc2nc(N3CCC(O)CC3)nc(Nc3cccc(C(F)(F)F)c3)c12", "note": "[Compound 6, 2-(4-hydroxypiperidin-1-yl)-4-(3-(trifluoromethyl)phenylamino)pyrido[4,3-d]pyrimidine-5(6H)-one]", "values": [{"measurement": "Percent Cell Death", "setting": "[1]; 0.05 uM", "result": 53.5, "unit": "%"}, {"measurement": "Percent Cell Death", "setting": "[1]; 0.5 uM", "result": 56.9, "unit": "%"}, {"measurement": "Percent Cell Death", "setting": "[1]; 5 uM", "result": 45.8, "unit": "%"}, {"measurement": "protective effects against LRRK2-associated cell death", "setting": "[1]; at 0.05 uM and higher, vs vector, DMSO or H2O2 controls", "result": "increased protective effects"}, {"measurement": "Percent Cell Death", "setting": "[2]; 0.05 uM", "result": 62.2, "unit": "%"}, {"measurement": "Percent Cell Death", "setting": "[2]; 0.5 uM", "result": 62.2, "unit": "%"}, {"measurement": "Percent Cell Death", "setting": "[2]; 5 uM", "result": 49.7, "unit": "%"}, {"measurement": "protective effects against LRRK2-associated cell death", "setting": "[2]; LRRK2 wild-type, at 0.05 uM and higher, vs vector, DMSO or H2O2 controls", "result": "increased protective effects"}, {"measurement": "Percent Cell Death", "setting": "[3]; 0.05 uM", "result": 54.2, "unit": "%"}, {"measurement": "Percent Cell Death", "setting": "[3]; 0.5 uM", "result": 57.5, "unit": "%"}, {"measurement": "Percent Cell Death", "setting": "[3]; 5 uM", "result": 42.5, "unit": "%"}, {"measurement": "GI50", "setting": "[4]; Homo sapiens", "result": 2.24, "unit": "µM"}, {"measurement": "IC50", "setting": "[4]; Homo sapiens", "result": 3.63, "unit": "µM"}, {"measurement": "LC50", "setting": "[4]; Homo sapiens", "result": 100, "unit": "µM"}, {"measurement": "TGI", "setting": "[4]", "result": 7.76, "unit": "µM"}, {"measurement": "TGI", "setting": "[5]", "result": 100, "unit": "µM"}, {"measurement": "GI50", "setting": "[5]; Homo sapiens", "result": 2.51, "unit": "µM"}, {"measurement": "IC50", "setting": "[5]; Homo sapiens", "result": "≥ 100", "unit": "µM"}, {"measurement": "CC50", "setting": "[5]; [11]", "result": 100, "unit": "µM"}, {"measurement": "GI50", "setting": "[6]; Homo sapiens", "result": 1.78, "unit": "µM"}, {"measurement": "IC50", "setting": "[6]; Homo sapiens", "result": 4.68, "unit": "µM"}, {"measurement": "CC50", "setting": "[6]; [11]", "result": 100, "unit": "µM"}, {"measurement": "TGI", "setting": "[6]", "result": 7.08, "unit": "µM"}, {"measurement": "GI50", "setting": "[7]; Homo sapiens", "result": 4.27, "unit": "µM"}, {"measurement": "IC50", "setting": "[7]; Homo sapiens", "result": 8.71, "unit": "µM"}, {"measurement": "CC50", "setting": "[7]; [11]", "result": 45.7, "unit": "µM"}, {"measurement": "TGI", "setting": "[7]", "result": 12.9, "unit": "µM"}, {"measurement": "GI50", "setting": "[8]; Homo sapiens", "result": 3.24, "unit": "µM"}, {"measurement": "IC50", "setting": "[8]; Homo sapiens", "result": 6.92, "unit": "µM"}, {"measurement": "CC50", "setting": "[8]; [11]", "result": 50.1, "unit": "µM"}, {"measurement": "TGI", "setting": "[8]", "result": 13.8, "unit": "µM"}, {"measurement": "inhibition at 0.3 µM", "setting": "[9]; Homo sapiens, LPS stimulation, At 0.3 μM, THP-1, read-out: Inhibition of TNF-α Release (percentage inhibition)", "result": 58, "unit": "%"}, {"measurement": "inhibition at 1 µM", "setting": "[9]; Homo sapiens, LPS stimulation, At 1 μM, THP-1, read-out: Inhibition of TNF-α Release (percentage inhibition)", "result": 68.9, "unit": "%"}, {"measurement": "percentage inhibition of TNF-α release compared with dexamethasone", "setting": "[9]; LPS stimulated release", "result": "greater than or equal to those exhibited by dexamethasone"}, {"measurement": "TGI", "setting": "[10]", "result": 100, "unit": "µM"}, {"measurement": "GI50", "setting": "[10]; Homo sapiens", "result": 2.04, "unit": "µM"}, {"measurement": "IC50", "setting": "[10]; Homo sapiens", "result": 8.13, "unit": "µM"}, {"measurement": "CC50", "setting": "[10]; [11]", "result": 100, "unit": "µM"}]}
